{"source": "paper PMC6479694", "about": "“Studies on the Interaction between Poly-Phosphane Gold(I) Complexes and Dihydrofolate Reductase: An Interplay with Nicotinamide Adenine Dinucleotide Cofactor” (International Journal of Molecular Sciences, 2019)", "key": {"[1]": {"molecular_target": "T1, DHFR from E. coli (Escherichia coli, UniProt P0ABQ4)", "T1 construct": "made in house", "assay": "Inhibition of DHFR-catalysed reduction of H2F to H4F, spectrophotometric at 340 nm, Dixon plot", "assay_type": "biochemical", "details": "pH 7.3, 30 °C, saturating NADPH, H2F 1.5-10 µM, Hepes/methanol", "experimental": "The phosphane gold(I) compounds were used to prepare buffered stock solutions at pH = 7.3 at 30 °C for the inhibition tests of DHFR from E coli. In Table 1, the list of the gold(I) compounds used for the tests and the corresponding inhibition constants are reported.\nThe inhibition action of the gold phosphane compounds was tested in regards to the reduction of H2F to H4F reaction, catalyzed by DHFR [2]. The inhibition tests were led by analyzing the reciprocal reaction rate upon the addition of Hepes/methanol solutions of gold compounds in different set of tests in the saturated concentration of NADPH. The tests were repeated with different amounts of dihydrofolate (DHF) (1.5 ÷ 10 µM).\nThe standard deviations were calculated for a minimum of three determinations. (1) 1/ν=Km/VmaxKi[S]∗[I]+1/Vmax(1+Km/[S])\nThe activity of the DHFR was followed by recording the absorbance with a Shimadzu UV-2450 (UV-Vis spectrophotometer). The enzyme assays were made in a quartz cuvette by using similar experimental conditions: DHFR 3-5 nM, NADPH 60–80 μM, and H2F 1.5, 4, and 10 μM. The procedure consisted in the preparation of the following mixtures: 800–971 µL of 50 mM Hepes buffer at pH = 7.3, 20 μL of NADPH, 10 µl of DHFR, and increasing quantities of gold(I) compounds stock solutions in order to achieve higher accuracy in the measurement of the inhibitory effect. After storing the mixture for 5 min at 30 °C, 4–33 µL of H2F was added. The decreasing absorbance at 340 nm, due to the oxidation of NADPH to NADP^+, was detected after adding the H2F, and expressed in U mL^−1 using the equation: U·mL^−1 = Δabs/Δt/11.8 × dilution factor, where 11.8 is the mMolar extinction coefficient when NADPH and H2F are simultaneously present in solution. The Ki values were calculated with the Dixon plot from the second plot obtained computing the slope values against the reciprocal of the H2F concentrations."}, "[2]": {"molecular_target": "T1, DHFR from E. coli", "assay": "Fluorimetric binding assay, quenching of DHFR tryptophan emission (λexc = 280 nm)", "details": "for Kd: without NADPH", "experimental": "The Hepes/methanol solutions of the gold(I) compounds were used for the fluorimetric assays (see materials and methods section) regarding DHFR from E. coli. The emission’s maximum of DHFR was detected at 344 nm upon excitation at 280 nm; by adding additional amounts of the gold complex in Hepes/methanol solutions (ranging among 4 ÷ 50 µM), the quenching of this emission intensity was observed. In Figure 3, spectra showing the effect of ^4L3AuCl on DHFR emission are reported. It is possible to observe the quenching of the Tryptophan’s emission and the corresponding increase of the intrinsic phosphorescence of the gold compound.\n(§1) The fluorimetric analysis was performed using a 1 mL quartz cuvette and a Perkin–Elmer Fluorescence Spectrometer LS 55. For all the analysis we used 5–12 µM solutions of DHFR and increasing concentrations of gold(I) compounds in the 4–60 µM range. For some experiments, saturating concentrations of NADPH (50 µM) were added to the initial solutions of DHFR to observe the affinity variation of the complexes with respect to the DHFR.\nAll the spectra were recorded in the range between 250 and 600 nm using an excitation wavelength characteristic of the Tryptophan, equal to 280 nm. For most of the experiments the temperature was kept constant at 25 °C; furthermore, to analyze the thermodynamic aspects of the reactions (via the van’t Hoff equation), quenching spectra of DHFR in presence of the gold(I) complexes were recorded at −4 and 10 °C as well.\n(§2) The fluorimetric data were analyzed using the binding isotherm (Equation (2)), where [Q] is the concentration of the added quenching ligand, F is the measured fluorescence, F0 is the starting fluorescence, Fc is the fluorescence of the fully complexed protein, Kd is the dissociation constant, and n is the Hill coefficient. Indeed, n is a phenomenological parameter, an interaction coefficient, such as when n = 1 the equation describes a complex formation with one site of interaction, when n = 2 binding occurs with a dimer, when 1 < n < 2 a cooperative interaction occurs. (2) F0−F/F−Fc=[Q]^n/(Kd+[Q])^n"}, "[3]": {"molecular_target": "T2, DHFR/NADPH (Escherichia coli, UniProt P0ABQ4)", "T2 construct": "made in house", "assay": "Fluorimetric binding assay on DHFR in presence of saturating NADPH", "details": "25 °C, saturating NADPH (50 µM); read-out: Kd ± s.d. (25 °C) in presence of saturating NADPH", "from_the_text": "After these preliminary emissive property characterizations, the fluorimetric studies were led in the presence of the enzyme DHFR and the cofactor NADPH [26]. […] Additionally, NADPH is fluorescent, with an absorption maximum at about 340 nm and an emission maximum at about 450 nm. […] Moreover, because NADPH has a maximum of absorption at 340 nm, significant energy transfer from the excited tryptophan of the enzyme to bound NADPH occurs; as a consequence, a new emission at 420–450 nm is then observed. Figure 8 reports the progressive quenching of the DHFR and NADPH emissions by stepwise adding of solution of ^4L3AuCl. Moreover, a slight shift of the typical emission at […] (λexc = 280 nm) is observed.\nas §1, §2"}, "[4]": {"assay": "UV-visible spectroscopy stability test in Hepes/methanol solution", "assay_type": "physicochemical", "details": "11.85 µM, Hepes/methanol 80:20, 30 °C, one hour, every 3 minutes", "experimental": "The preparation of the gold compounds was performed according to methods already published and was based on the substitution of the labile ligand from the gold precursor [AuCl(Me2S)], by mean of a more coordinative ligand, such as the PPh3 or its modified analogs, ^4L and ^2L. Mole ratio with an excess of the phosphane ligand was pursued with the aim to enhance the reaction yield for tris-phosphane compounds. The solids obtained by crystallization were characterized by elemental analysis, ^1H and ^31P NMR, IR, and ESI Mass spectrometry. The stability of the stock solutions upon dilution was checked by recording UV-visible spectra (see Supplementary Material, Figures S1 and S2). The reactants for the ester reaction and ^4L or ^2L ligands were bought from Aldrich and used without any purification. Methanol or methylene chloride solvents were degassed and dried over molecular sieves.\nUV-visible spectroscopy stability tests of compounds 4L3AuCl, 4L2AuCl, and 2L2AuCl on […]\nAcquisitions of the absorptions in the range of 200–700 nm of the tested solutions were led for an hour lapse every 3 minutes in 11.85 µM concentration of 4L3AuCL (figure S1), 4L2AuCl, and 2L2AuCl (figure S2) at 30 °C. The stability was tested in Hepes/methanol 80:20, which are the same conditions used for the inhibition tests.\nFigure S1. UV-visible spectra for 11.85 µM of 4L3AuCl in hepes/methanol\n(1 picture or pasted object on this page, not shown here)"}, "[5]": {"tested_on": "DHFR", "parameters": "method as in PMID 17920, PMID 12359872", "details": "cited from earlier work"}, "[6]": {"details": "van't Hoff equation from Kd at 25, 10 and −4 °C"}}, "note": "Read-outs that look alike come from different tables or passages of the source.", "data": [{"smiles": "O=C(O)c1ccc(P(c2ccccc2)c2ccccc2)cc1.O=C(O)c1ccc(P(c2ccccc2)c2ccccc2)cc1.O=C(O)c1ccc(P(c2ccccc2)c2ccccc2)cc1.[Cl][Au]", "note": "[^4L3AuCl, [tris(4-benzoate-diphenylphosphanyl)-gold(I)chloride]]", "values": [{"measurement": "Ki", "setting": "[1]", "value": "4.6 ± 0.5", "unit": "µM"}, {"measurement": "Kd", "setting": "[2]; 10 °C, read-out: Kd ± s.d. (10 °C) (converted)", "value": 3.32, "unit": "µM"}, {"measurement": "Kd", "setting": "[2]; 25 °C, Hepes/methanol, read-out: Kd ± s.d., T = 25 °C", "value": "3.84 ± 0.29", "unit": "µM"}, {"measurement": "n = Hill coefficient", "setting": "[2]; 25 °C, when not specified n = 1", "value": 1.73}, {"measurement": "TΔS°", "setting": "[2]; from van't Hoff analysis", "value": "2.19 ± 0.1", "unit": "kcal/mol"}, {"measurement": "ΔG°", "setting": "[2]; standard free energy equation from ΔH° and TΔS°", "value": "-7.23 ± 0.12", "unit": "kcal/mol"}, {"measurement": "ΔH°", "setting": "[2]; [6]", "value": "-5.04 ± 0.08", "unit": "kcal/mol"}, {"measurement": "ΔS°", "setting": "[2]; [6]", "value": "7.34 ± 0.005", "unit": "cal/mol K"}, {"measurement": "Kd", "setting": "[2]; −4 °C, read-out: Kd ± s.d. (−4 °C) (converted)", "value": 2, "unit": "µM"}, {"measurement": "Kd", "setting": "[3]", "value": "5.05 ± 2.7", "unit": "µM"}, {"measurement": "Stability of the solution (UV-visible spectra 200–700 nm)", "setting": "[4]", "value": "no overall changes in solution over"}]}, {"smiles": "CN(Cc1cnc2nc(N)nc(N)c2n1)c1ccc(C(=O)N[C@@H](CCC(=O)O)C(=O)O)cc1", "note": "[Methotrexate]", "values": [{"measurement": "stronger bond to DHFR than DHF (factor)", "setting": "[5]", "value": "10^3"}]}]}
